This note sets out measurements from patent US8772480B2, “Inhibitors of PI3 kinase and/or mTOR” (priority 2009, dated 2014).

The target in one assay is PI3Kα (Homo sapiens (Human), UniProt P42336). The note with it: read-out: PI3Kα AlphaScreen ® Ki. A general note: Alpha assays give light when donor and acceptor beads are brought close together.
The subject of assay [1] is phosphorylation of Akt at Serine 473 in U87 MG cells. The experiment in a line: cells. The note with it: Homo sapiens, U-87 MG, 2 h, read-out: U87Cell IC50, pAkt (Ser 473), U87 MG cells, two hours with compound.

pIC50, pKi: −log10 of the molar value.

Sequence of PI3Kα (P42336 whole entry): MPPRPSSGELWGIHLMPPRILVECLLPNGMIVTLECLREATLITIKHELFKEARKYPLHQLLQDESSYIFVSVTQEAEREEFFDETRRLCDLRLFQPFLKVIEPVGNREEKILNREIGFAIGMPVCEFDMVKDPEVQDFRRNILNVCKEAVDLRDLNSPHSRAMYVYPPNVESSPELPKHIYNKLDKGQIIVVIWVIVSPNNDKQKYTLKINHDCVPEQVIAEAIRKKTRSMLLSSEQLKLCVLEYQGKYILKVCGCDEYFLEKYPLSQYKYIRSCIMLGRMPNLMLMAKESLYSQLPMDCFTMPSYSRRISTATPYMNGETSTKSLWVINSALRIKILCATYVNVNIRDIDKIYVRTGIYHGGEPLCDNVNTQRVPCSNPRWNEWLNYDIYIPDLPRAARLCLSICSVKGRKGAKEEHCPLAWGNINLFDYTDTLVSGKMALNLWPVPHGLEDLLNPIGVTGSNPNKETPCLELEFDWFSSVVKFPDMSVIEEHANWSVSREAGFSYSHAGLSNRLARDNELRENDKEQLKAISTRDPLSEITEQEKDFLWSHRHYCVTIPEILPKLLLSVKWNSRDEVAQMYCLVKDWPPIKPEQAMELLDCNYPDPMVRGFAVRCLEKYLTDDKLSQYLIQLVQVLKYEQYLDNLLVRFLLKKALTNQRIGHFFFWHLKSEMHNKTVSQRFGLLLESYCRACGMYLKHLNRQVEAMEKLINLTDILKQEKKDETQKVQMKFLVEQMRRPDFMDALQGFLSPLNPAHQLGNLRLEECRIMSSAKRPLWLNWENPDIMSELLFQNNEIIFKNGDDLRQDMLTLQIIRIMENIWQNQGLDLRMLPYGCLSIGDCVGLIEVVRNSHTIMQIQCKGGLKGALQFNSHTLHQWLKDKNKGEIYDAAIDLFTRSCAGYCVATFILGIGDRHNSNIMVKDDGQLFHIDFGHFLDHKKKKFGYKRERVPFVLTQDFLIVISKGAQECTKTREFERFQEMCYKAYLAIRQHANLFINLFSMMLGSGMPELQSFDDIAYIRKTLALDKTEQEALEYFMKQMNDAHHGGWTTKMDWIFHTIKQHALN
Sequence of PI3Kα (P27986 whole entry partner): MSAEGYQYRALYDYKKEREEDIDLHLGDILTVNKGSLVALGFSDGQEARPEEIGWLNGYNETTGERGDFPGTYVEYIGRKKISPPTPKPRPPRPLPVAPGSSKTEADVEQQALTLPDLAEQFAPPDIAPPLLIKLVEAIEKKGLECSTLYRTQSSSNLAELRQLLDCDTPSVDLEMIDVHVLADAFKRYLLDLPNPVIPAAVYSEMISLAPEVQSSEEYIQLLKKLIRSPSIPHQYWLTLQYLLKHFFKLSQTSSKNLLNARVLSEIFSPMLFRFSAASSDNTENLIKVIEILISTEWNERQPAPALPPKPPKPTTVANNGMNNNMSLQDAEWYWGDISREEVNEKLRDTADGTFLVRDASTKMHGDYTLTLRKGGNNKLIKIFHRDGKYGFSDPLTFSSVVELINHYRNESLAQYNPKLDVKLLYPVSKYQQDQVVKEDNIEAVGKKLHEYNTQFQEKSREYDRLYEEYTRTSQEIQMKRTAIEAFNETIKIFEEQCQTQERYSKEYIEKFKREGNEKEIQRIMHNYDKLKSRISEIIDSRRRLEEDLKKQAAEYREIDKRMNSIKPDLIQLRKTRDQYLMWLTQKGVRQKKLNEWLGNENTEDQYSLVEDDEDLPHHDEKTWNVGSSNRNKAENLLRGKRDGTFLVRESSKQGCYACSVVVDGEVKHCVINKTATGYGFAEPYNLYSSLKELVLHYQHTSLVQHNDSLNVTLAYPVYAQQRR

For orientation: pKi means the negative decadic logarithm of the Ki, by convention in mol/L. The pIC50 is −log10 of the IC50, conventionally taken in molar units. Take `COc1ccc(Nc2ncc(CN3CCN(C(=O)N(C)C)CC3)cc2-c2nc(C)nc3[nH]cnc23)cn1` [Example 87, 4-((6-(6-Methoxypyridin-3-Ylamino)-5-(2-Methyl-9H-Purin-6-yl)Pyridin-3-yl)Methyl)-N,N-Dimethylpiperazine-1-Carboxamide]: at PI3Kα, the pKi was 7.37. Also, the pIC50 in assay [1] was 6.68.
In the case of `COc1ccc(Nc2ncc(CN3CCN(S(=O)(=O)N(C)C)CC3)cc2-c2nc(C)nc3[nH]cnc23)cn1` [Example 88, 4-((6-(6-Methoxypyridin-3-Ylamino)-5-(2-Methyl-9H-Purin-6-yl)Pyridin-3-yl)Methyl)-N,N-Dimethylpiperazine-1-Sulfonamide], the pKi at PI3Kα is 8.15. For the same molecule, in assay [1], the negative logarithm of the IC50 (pIC50) was 7.35.
`COc1ccc(Nc2ncc(NCc3ccccc3)cc2-c2nc(C)nc3[nH]cnc23)cn1` [Example 91, N5-benzyl-N2-(6-methoxypyridin-3-yl)-3-(2-methyl-9H-purin-6-yl)pyridine-2,5-diamine]: at PI3Kα, the pKi was 7.24. Besides, in assay [1], the negative logarithm of the IC50 (pIC50) was 6.42.
In the same order, the values of `COc1ccc(Nc2ncc(Nc3ccccc3)cc2-c2nc(C)nc3[nH]cnc23)cn1` [Example 92, N2-(6-methoxypyridin-3-yl)-3-(2-methyl-9H-purin-6-yl)-N-5-phenylpyridine-2,5-diamine] are 7.48 and 6.04.
Take `COCCNc1cnc(Nc2ccc(OC)nc2)c(-c2nc(C)nc3[nH]cnc23)c1` [Example 93, N5-(2-methoxyethyl)-N2-(6-methoxypyridin-3-yl)-3-(2-methyl-9H-purin-6-yl)pyridine-2,5-diamine]: the pKi at PI3Kα was 6.98. Also, the negative logarithm of the IC50 (pIC50) in assay [1] was 6.03.
Regarding `CCNc1cnc(Nc2ccc(OC)nc2)c(-c2nc(C)nc3[nH]cnc23)c1` [Example 94, N5-ethyl-N2-(6-methoxypyridin-3-yl)-3-(2-methyl-9H-purin-6-yl)pyridine-2,5-diamine], at PI3Kα, the pKi was 6.74. Also, in assay [1], the pIC50 was 5.91.
`COc1ccc(CNc2cnc(Nc3ccc(OC)nc3)c(-c3nc(C)nc4[nH]cnc34)c2)cc1` [Example 95, N5-(4-methoxybenzyl)-N2-(6-methoxypyridin-3-yl)-3-(2-methyl-9H-purin-6-yl)pyridine-2,5-diamine]: at PI3Kα, the pKi was 7.11. Also, the negative logarithm of the IC50 (pIC50) in assay [1] is 6.57.
For `COc1ccc(Nc2ncc(N3CCC(O)C3)cc2-c2nc(C)nc3[nH]cnc23)cn1` (centres unmarked) [Example 98, 1-(6-(6-Methoxypyridin-3-Ylamino)-5-(2-Methyl-9H-Purin-6-yl)Pyridin-3-yl)Pyrrolidin-3-ol] the same measures were 7.10 and 6.53.
For the molecule `COc1ccc(Nc2ncc(N3CCN(S(C)(=O)=O)CC3)cc2-c2nc(C)nc3[nH]cnc23)cn1` [Example 99, N-(6-Methoxypyridin-3-yl)-3-(2-Methyl-9H-Purin-6-yl)-5-(4-(Methylsulfonyl)Piperazin-1-yl)Pyridin-2-Amine], the pKi at PI3Kα was 7.64. Further, in assay [1], the negative-log IC50 (pIC50) is 6.69.
Take `COc1ccc(Nc2ncc(N3CCC[C@H]3CO)cc2-c2nc(C)nc3[nH]cnc23)cn1` [Example 100, ((2S)-1-(6-(6-Methoxypyridin-3-Ylamino)-5-(2-Methyl-9H-Purin-6-yl)Pyridin-3-yl)Pyrrolidin-2-yl)Methanol]: the pKi on PI3Kα was 7.54. For the same molecule, the pIC50 in assay [1] is 6.72.
As for `COc1ccc(Nc2ncc(N3CCC[C@@H]3CO)cc2-c2nc(C)nc3[nH]cnc23)cn1` [Example 101, ((2R)-1-(6-(6-Methoxypyridin-3-Ylamino)-5-(2-Methyl-9H-Purin-6-yl)Pyridin-3-yl)Pyrrolidin-2-yl)Methanol], the pKi on PI3Kα is 7.40. Besides, in assay [1], the pIC50 was 6.53.
In the same order, the values of `Cc1nc(-c2cc(Cc3ccc(S(C)(=O)=O)cc3)cnc2Nc2ccc(N)nc2)c2nc[nH]c2n1` [Example 106, N5-(3-(2-methyl-9H-purin-6-yl)-5-(4-(methylsulfonyl)benzyl)pyridin-2-yl)pyridine-2,5-diamine] are 7.92 and 6.85.
Turning to `Cc1nc(-c2cnccc2Nc2cccc3[nH]ncc23)c2nc[nH]c2n1` [Example 110, N-(3-(2-methyl-9H-purin-6-yl)pyridin-4-yl)-1H-indazol-4-amine], the negative-log Ki (pKi) on PI3Kα is 6.58. The negative logarithm of the IC50 (pIC50) in assay [1] was 5.62.
`COc1ccc(Nc2ccncc2-c2nc(C)nc3[nH]cnc23)cn1` [Example 111, 6-methoxy-N-(3-(2-methyl-9H-purin-6-yl)pyridin-4-yl)pyridin-3-amine]: the pKi on PI3Kα is 6.60. Also, the negative-log IC50 (pIC50) in assay [1] is 5.93.
As to `Cc1nc(N)cc(-c2nccnc2Nc2cccc3[nH]ncc23)n1` [Example 112, N-(3-(6-amino-2-methylpyrimidin-4-yl)pyrazin-2-yl)-1H-indazol-4-amine], the pKi at PI3Kα was 7.01. Also, in assay [1], the pIC50 was 6.35.
In the case of `COc1ccc(Nc2nc3ccccc3cc2-c2nc(C)nc3[nH]cnc23)cn1` [Example 113, N-(6-Methoxypyridin-3-yl)-3-(2-Methyl-9H-Purin-6-yl)Quinolin-2-Amine], at PI3Kα, the pKi is 7.42. The negative-log IC50 (pIC50) in assay [1] is less than 5.00.
For the molecule `COc1ccc(Nc2nc(N)ncc2-c2nc(C)nc(N)n2)cn1` [Example 118, 5-(4-amino-6-methyl-1,3,5-triazin-2-yl)-N4-(6-methoxypyridin-3-yl)pyrimidine-2,4-diamine], the pKi at PI3Kα is 6.95. Besides, in assay [1], the negative logarithm of the IC50 (pIC50) is 6.76.
Turning to `COc1ccc(Nc2nc(N3CCOCC3)ncc2-c2nc(C)nc(N)n2)cn1` [Example 120, 4-(4-(6-methoxypyridin-3-ylamino)-2-morpholinopyrimidin-5-yl)-6-methyl-1,3,5-triazin-2-amine], at PI3Kα, the pKi was 7.01. Further, the negative logarithm of the IC50 (pIC50) in assay [1] is 6.83.
For `COc1ccc(Nc2nc(N(C)C)ncc2-c2nc(C)nc(N)n2)cn1` [Example 121, 5-(4-amino-6-methyl-1,3,5-triazin-2-yl)-N4-(6-methoxypyridin-3-yl)-N2,N2-dimethylpyrimidine-2,4-diamine], the pKi at PI3Kα is 7.35. Moreover, the pIC50 in assay [1] was 6.72.
On to `COc1ccc(Nc2nc(N3CCCC3)ncc2-c2nc(C)nc(N)n2)cn1` [Example 122, 4-(4-(6-methoxypyridin-3-ylamino)-2-(pyrrolidin-1-yl)pyrimidin-5-yl)-6-methyl-1,3,5-triazin-2-amine], for which the pKi at PI3Kα was 7.29. Besides, in assay [1], the negative logarithm of the IC50 (pIC50) was 6.14.
Regarding `COc1ccc(Nc2nc(N3CCCCC3)ncc2-c2nc(C)nc(N)n2)cn1` [Example 123, 4-(4-(6-methoxypyridin-3-ylamino)-2-(piperidin-1-yl)pyrimidin-5-yl)-6-methyl-1,3,5-triazin-2-amine], the pKi at PI3Kα is 6.99. Moreover, the pIC50 in assay [1] was less than 5.00.
For `COc1ccc(Nc2nc(-c3ccc(F)cc3)ncc2-c2nc(C)nc(N)n2)cn1` [Example 125, 4-(2-(4-fluorophenyl)-4-(6-methoxypyridin-3-ylamino)pyrimidin-5-yl)-6-methyl-1,3,5-triazin-2-amine] the same measures were 6.30 and less than 5.00.
On to `Cc1nc(N)nc(-c2cc(CN3CCN(S(C)(=O)=O)CC3)cnc2Nc2ccc3ocnc3c2)n1` [Example 128, N-(3-(4-amino-6-methyl-1,3,5-triazin-2-yl)-5-((4-(methylsulfonyl)piperazin-1-yl)methyl)pyridin-2-yl)benzo[d]oxazol-5-amine], for which, on PI3Kα, the pKi is 8.15. In assay [1], the pIC50 is 7.68.
Regarding `Cc1nc(N)nc(-c2cc(CN3CCOCC3)cnc2Nc2ccc3scnc3c2)n1` [Example 129, N-(3-(4-amino-6-methyl-1,3,5-triazin-2-yl)-5-(morpholinomethyl)pyridin-2-yl)benzo[d]thiazol-5-amine], at PI3Kα, the pKi is 7.00. Also, in assay [1], the pIC50 is 7.08.
In the case of `COc1ncc(Nc2ncc(CN3CCOCC3)cc2-c2nc(C)nc(N)n2)cc1F` [Example 130, 4-(2-(5-fluoro-6-methoxypyridin-3-ylamino)-5-(morpholinomethyl)pyridin-3-yl)-6-methyl-1,3,5-triazin-2-amine], the pKi at PI3Kα was 7.70. Moreover, the negative-log IC50 (pIC50) in assay [1] was 7.85.
On to `COc1ccc(Nc2ncc(CNC(C)(C)C)cc2-c2nc(C)nc3[nH]cnc23)cn1` [Example 134, 5-((tert-butylamino)methyl)-N-(6-methoxypyridin-3-yl)-3-(2-methyl-9H-purin-6-yl)pyridin-2-amine], for which the pKi on PI3Kα was 6.66. Moreover, the negative-log IC50 (pIC50) in assay [1] was 5.90.
For `COc1ccc(Nc2ncc(CNC(C)C)cc2-c2nc(C)nc3[nH]cnc23)cn1` [Example 135, 5-((isopropylamino)methyl)-N-(6-methoxypyridin-3-yl)-3-(2-methyl-9H-purin-6-yl)pyridin-2-amine], the negative-log Ki (pKi) on PI3Kα was 6.92. Besides, the pIC50 in assay [1] was 6.36.
On to `COc1ccc(Nc2ncc(CNCc3ccccn3)cc2-c2nc(C)nc3[nH]cnc23)cn1` [Example 136, N-(6-methoxypyridin-3-yl)-3-(2-methyl-9H-purin-6-yl)-5-((pyridin-2-ylmethylamino)methyl)pyridin-2-amine], for which the negative logarithm of the Ki (pKi) at PI3Kα was 7.27. For the same molecule, the pIC50 in assay [1] was 6.91.
In the same order, the values of `COc1ccc(Nc2ncc(CNCc3ccncc3)cc2-c2nc(C)nc3[nH]cnc23)cn1` [Example 137, N-(6-methoxypyridin-3-yl)-3-(2-methyl-9H-purin-6-yl)-5-((pyridin-4-ylmethylamino)methyl)pyridin-2-amine] are 7.40 and 6.74.
Consider `COc1ccc(Nc2ncc(CNCc3cccnc3)cc2-c2nc(C)nc3[nH]cnc23)cn1` [Example 138, N-(6-methoxypyridin-3-yl)-3-(2-methyl-9H-purin-6-yl)-5-((pyridin-3-ylmethylamino)methyl)pyridin-2-amine], for which the pKi on PI3Kα is 7.32. Further, the pIC50 in assay [1] was 6.76.
As to `COc1ccc(Nc2ncc(C(O)c3ccc(S(C)(=O)=O)cc3)cc2-c2nc(C)nc3[nH]cnc23)cn1` (centres unmarked) [Example 139, (6-(6-methoxypyridin-3-ylamino)-5-(2-methyl-9H-purin-6-yl)pyridin-3-yl)(4-(methylsulfonyl)phenyl)methanol], the pKi at PI3Kα is 8.30. The negative-log IC50 (pIC50) in assay [1] was 6.73.
